Source: ChEMBL document CHEMBL5291721, “A preclinical secondary pharmacology resource illuminates target-adverse drug reaction associations of marketed drugs” (Nat Commun, 2023)
Where “and” joins values, the source holds several entries; their conditions need not be identical. Equal entries are not always repeated.

How the values were obtained:
[1] = molecular target: T1, Gastrin/cholecystokinin type B receptor (Homo sapiens, UniProt P32239)
T1 sequence (P32239 whole entry): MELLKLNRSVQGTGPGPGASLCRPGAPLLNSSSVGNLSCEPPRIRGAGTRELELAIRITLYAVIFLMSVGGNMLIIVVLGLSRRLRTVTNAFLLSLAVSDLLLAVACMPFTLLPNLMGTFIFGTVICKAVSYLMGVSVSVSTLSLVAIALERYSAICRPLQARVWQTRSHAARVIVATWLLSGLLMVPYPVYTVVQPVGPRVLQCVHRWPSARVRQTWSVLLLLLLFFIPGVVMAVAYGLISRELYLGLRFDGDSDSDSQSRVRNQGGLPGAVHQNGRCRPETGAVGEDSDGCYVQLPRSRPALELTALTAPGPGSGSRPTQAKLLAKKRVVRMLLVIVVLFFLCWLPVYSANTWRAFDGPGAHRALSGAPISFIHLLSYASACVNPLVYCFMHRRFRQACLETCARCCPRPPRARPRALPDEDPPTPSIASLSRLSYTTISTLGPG

[2] = molecular target: 5-hydroxytryptamine receptor 2A (Homo sapiens, UniProt P28223); type: functional, cell-based
Chain of 5-hydroxytryptamine receptor 2A (P28223 whole entry): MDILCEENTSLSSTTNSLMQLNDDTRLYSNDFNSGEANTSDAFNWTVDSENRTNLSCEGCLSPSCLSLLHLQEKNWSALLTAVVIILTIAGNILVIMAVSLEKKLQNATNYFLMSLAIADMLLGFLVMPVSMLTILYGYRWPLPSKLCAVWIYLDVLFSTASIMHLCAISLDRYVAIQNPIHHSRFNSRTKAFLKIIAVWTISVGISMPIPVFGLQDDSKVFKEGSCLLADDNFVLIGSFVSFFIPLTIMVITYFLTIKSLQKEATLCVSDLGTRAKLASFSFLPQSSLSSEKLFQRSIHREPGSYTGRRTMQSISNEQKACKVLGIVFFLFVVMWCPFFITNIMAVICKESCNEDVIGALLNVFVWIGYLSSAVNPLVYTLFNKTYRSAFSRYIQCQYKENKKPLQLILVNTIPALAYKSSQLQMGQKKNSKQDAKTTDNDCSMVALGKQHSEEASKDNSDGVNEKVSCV

[3] = molecular target: Histamine H1 receptor (Homo sapiens, UniProt P35367)
Chain of Histamine H1 receptor (P35367 whole entry): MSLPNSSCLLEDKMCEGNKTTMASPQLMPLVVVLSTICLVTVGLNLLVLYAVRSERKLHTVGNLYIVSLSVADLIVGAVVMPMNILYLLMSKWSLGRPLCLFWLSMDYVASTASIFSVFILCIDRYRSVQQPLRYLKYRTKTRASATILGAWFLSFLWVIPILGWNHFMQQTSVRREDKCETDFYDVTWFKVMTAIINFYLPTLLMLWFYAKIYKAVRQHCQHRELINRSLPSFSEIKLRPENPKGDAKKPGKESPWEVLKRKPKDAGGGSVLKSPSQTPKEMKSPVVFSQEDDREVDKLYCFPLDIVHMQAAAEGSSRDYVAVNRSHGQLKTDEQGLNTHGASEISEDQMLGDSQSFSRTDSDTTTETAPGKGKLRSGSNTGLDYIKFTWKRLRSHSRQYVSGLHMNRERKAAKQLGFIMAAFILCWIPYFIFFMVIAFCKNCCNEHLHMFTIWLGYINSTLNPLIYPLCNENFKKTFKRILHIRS

[4] = molecular target: T2, Thromboxane A2 receptor (Homo sapiens, UniProt P21731)
T2 sequence (P21731 whole entry): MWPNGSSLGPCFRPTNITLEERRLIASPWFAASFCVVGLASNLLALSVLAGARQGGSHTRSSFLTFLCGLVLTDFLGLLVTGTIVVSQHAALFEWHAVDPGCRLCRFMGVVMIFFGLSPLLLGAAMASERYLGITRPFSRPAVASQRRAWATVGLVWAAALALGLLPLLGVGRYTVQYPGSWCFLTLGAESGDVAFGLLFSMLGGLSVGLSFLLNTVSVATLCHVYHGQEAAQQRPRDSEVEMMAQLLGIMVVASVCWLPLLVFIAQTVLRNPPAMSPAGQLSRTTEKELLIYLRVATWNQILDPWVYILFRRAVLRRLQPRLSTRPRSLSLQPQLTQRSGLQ

[5] = molecular target: T3, Alpha-1A adrenergic receptor (Homo sapiens, UniProt P35348); type: functional, cell-based
T3 sequence (P35348 whole entry): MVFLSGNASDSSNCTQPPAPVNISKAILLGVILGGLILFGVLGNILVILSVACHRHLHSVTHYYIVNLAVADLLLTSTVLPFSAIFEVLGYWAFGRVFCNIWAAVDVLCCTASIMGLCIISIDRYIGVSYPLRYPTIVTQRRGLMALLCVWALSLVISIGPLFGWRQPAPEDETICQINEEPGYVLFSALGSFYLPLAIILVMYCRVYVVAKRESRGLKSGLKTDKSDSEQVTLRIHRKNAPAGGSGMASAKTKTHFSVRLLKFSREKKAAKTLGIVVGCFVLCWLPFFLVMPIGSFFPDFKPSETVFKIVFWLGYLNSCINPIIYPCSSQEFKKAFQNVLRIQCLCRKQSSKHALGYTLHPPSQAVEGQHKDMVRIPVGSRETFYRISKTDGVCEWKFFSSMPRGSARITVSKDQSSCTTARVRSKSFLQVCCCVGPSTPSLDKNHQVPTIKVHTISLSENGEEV

[6] = molecular target: Vasopressin V1a receptor (Homo sapiens, UniProt P37288)
Chain of Vasopressin V1a receptor (P37288 whole entry): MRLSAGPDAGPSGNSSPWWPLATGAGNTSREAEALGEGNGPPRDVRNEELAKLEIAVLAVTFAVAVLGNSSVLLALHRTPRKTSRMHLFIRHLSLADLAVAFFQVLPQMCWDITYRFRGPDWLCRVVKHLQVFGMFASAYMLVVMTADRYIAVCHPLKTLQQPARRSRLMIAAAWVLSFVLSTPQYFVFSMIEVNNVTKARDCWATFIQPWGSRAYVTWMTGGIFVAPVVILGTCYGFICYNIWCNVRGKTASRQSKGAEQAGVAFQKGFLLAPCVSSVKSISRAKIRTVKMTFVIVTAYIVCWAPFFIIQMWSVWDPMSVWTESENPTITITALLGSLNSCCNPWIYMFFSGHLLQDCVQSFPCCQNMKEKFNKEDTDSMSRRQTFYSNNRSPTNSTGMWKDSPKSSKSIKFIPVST

[7] = molecular target: T3, Alpha-1A adrenergic receptor; type: functional, cell-based; remark: listed apart in the source
[8] = molecular target: Histamine H3 receptor (Homo sapiens, UniProt Q9Y5N1)
Chain of Histamine H3 receptor (Q9Y5N1 whole entry): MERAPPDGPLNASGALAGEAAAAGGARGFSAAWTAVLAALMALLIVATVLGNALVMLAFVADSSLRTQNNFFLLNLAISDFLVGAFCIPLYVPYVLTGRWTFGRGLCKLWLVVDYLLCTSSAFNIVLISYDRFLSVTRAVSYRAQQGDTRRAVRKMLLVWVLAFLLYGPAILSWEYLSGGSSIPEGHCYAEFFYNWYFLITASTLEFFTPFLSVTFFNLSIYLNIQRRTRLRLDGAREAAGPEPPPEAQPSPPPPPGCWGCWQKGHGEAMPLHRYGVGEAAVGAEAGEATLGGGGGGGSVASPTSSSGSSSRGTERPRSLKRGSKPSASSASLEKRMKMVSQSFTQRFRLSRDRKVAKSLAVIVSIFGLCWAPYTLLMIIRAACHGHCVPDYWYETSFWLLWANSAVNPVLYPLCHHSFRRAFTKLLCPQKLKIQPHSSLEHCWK

[9] = molecular target: Muscarinic acetylcholine receptor M3 (Homo sapiens, UniProt P20309)
Chain of Muscarinic acetylcholine receptor M3 (P20309 whole entry): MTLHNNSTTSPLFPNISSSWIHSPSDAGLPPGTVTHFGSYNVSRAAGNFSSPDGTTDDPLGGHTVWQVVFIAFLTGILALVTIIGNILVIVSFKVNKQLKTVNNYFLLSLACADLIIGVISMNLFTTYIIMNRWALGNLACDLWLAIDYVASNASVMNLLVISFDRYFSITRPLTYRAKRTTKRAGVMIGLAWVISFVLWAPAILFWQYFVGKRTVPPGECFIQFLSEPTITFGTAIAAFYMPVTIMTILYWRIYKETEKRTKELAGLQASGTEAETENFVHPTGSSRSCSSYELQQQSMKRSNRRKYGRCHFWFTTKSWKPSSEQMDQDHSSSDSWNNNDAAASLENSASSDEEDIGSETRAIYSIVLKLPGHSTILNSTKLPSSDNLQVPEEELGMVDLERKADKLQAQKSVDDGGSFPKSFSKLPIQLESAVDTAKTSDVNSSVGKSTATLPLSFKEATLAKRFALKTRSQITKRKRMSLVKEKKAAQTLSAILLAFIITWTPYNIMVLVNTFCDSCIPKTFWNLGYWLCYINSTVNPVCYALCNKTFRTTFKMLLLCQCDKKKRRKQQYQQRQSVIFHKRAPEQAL

[10] = molecular target: Kappa-type opioid receptor (Homo sapiens, UniProt P41145)
Chain of Kappa-type opioid receptor (P41145 whole entry): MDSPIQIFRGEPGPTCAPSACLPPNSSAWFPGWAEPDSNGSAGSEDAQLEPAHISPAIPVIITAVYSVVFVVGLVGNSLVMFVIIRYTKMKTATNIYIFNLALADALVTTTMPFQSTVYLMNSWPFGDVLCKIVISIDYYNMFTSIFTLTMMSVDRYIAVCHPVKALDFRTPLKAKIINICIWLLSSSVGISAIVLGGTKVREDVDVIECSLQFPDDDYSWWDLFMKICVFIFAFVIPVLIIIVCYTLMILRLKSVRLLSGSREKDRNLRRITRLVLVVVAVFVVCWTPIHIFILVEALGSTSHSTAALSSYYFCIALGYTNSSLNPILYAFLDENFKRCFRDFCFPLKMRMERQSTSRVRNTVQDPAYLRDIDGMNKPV

[11] = molecular target: T2, Thromboxane A2 receptor; type: functional, cell-based
[12] = molecular target: Prothrombin (Homo sapiens, UniProt P00734); type: functional
[13] = molecular target: cGMP-inhibited 3',5'-cyclic phosphodiesterase 3A (Homo sapiens, UniProt Q14432); type: functional
Chain of cGMP-inhibited 3',5'-cyclic phosphodiesterase 3A (Q14432 whole entry): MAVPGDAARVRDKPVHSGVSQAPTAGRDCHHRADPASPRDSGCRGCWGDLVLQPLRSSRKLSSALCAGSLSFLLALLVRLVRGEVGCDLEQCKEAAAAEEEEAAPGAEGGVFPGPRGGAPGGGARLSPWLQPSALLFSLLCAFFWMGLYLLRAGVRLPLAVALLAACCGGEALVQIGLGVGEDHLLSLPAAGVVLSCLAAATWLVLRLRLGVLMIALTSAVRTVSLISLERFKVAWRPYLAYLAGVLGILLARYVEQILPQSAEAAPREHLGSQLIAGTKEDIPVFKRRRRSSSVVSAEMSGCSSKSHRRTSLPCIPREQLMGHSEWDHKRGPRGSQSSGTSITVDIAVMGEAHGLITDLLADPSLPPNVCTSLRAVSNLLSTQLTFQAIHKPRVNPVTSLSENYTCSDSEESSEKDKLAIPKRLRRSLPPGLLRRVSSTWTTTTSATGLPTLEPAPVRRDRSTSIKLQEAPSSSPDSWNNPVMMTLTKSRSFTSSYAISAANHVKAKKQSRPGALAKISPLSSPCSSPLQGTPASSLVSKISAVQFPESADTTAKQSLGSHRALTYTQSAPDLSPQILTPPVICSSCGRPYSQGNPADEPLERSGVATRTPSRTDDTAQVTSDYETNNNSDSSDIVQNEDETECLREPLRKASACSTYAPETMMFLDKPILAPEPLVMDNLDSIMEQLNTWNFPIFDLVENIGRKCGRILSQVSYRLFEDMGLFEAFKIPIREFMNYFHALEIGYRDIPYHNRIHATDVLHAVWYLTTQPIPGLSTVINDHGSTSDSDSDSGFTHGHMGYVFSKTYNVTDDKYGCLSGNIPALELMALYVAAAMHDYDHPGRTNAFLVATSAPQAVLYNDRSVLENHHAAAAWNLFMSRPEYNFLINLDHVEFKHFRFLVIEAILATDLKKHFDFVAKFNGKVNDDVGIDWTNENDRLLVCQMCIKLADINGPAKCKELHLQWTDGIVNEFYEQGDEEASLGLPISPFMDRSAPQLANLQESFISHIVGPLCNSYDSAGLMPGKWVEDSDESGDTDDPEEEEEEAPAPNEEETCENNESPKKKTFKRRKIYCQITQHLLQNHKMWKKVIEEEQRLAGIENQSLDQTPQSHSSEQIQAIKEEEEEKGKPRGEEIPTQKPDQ

[14] = molecular target: Acetylcholinesterase (Homo sapiens, UniProt P22303); type: functional
Chain of Acetylcholinesterase (P22303 whole entry): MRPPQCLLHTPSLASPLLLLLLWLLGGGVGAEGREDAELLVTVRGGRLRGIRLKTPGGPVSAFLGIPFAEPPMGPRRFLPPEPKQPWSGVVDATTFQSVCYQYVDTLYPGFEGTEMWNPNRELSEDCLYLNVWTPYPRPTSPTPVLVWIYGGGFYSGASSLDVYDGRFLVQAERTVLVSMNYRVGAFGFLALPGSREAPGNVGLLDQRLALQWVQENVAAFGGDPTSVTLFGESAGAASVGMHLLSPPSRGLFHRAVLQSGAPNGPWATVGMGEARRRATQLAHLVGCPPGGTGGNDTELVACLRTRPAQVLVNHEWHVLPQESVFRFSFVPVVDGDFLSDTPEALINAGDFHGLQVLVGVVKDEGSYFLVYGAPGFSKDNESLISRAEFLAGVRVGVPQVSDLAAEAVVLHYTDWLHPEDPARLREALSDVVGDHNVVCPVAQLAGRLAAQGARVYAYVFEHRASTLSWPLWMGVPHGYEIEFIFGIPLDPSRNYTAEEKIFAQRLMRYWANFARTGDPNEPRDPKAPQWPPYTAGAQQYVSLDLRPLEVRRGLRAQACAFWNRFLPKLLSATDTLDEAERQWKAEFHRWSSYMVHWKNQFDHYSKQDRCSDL

[15] = molecular target: D(3) dopamine receptor (Homo sapiens, UniProt P35462)
Chain of D(3) dopamine receptor (P35462 whole entry): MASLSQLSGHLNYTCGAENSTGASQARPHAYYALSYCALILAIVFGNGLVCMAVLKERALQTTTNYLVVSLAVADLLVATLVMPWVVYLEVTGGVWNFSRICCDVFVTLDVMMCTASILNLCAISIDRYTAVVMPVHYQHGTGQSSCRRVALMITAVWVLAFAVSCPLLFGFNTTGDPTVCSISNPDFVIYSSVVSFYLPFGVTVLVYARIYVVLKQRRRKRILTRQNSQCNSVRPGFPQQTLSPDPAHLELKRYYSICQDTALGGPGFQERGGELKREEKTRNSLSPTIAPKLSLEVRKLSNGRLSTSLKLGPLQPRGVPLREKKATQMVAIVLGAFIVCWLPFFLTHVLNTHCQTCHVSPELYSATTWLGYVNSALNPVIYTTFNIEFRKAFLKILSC

[16] = molecular target: T2, Thromboxane A2 receptor; type: functional, cell-based; remark: listed apart in the source
[17] = molecular target: T4, Estrogen receptor (Homo sapiens, UniProt P03372)
T4 sequence (P03372 whole entry): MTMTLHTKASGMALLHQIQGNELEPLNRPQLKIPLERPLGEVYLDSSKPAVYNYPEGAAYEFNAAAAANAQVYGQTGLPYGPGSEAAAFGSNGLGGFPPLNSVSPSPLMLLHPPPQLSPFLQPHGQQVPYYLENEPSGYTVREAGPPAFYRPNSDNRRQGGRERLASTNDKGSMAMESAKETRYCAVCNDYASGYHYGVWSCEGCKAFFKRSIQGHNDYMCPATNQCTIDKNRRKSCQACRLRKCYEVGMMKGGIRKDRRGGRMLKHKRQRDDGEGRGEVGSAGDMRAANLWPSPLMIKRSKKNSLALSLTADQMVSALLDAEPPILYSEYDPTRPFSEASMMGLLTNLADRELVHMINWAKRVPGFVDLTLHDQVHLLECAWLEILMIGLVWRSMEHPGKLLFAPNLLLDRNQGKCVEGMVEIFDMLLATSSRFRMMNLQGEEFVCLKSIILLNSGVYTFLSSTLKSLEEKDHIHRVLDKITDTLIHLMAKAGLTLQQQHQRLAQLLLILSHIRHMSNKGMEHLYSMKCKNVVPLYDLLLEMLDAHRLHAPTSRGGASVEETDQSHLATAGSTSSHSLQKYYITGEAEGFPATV
Note: assay procedure not described here.

| AC50 [1] [µM] | AC50 [2] [µM] | AC50 [3] [µM] | AC50 [4] [µM] | AC50 [5] [µM] | AC50 [6] [µM] | AC50 [7] [µM] | AC50 [8] | AC50 [9] [µM] | AC50 [10] [µM] | SMILES | AC50 [11] [µM] | AC50 [12] [µM] | AC50 [13] [µM] | AC50 [14] [µM] | AC50 [15] [µM] | AC50 [16] [µM] | AC50 [17] [µM] |
| --- | --- | --- | --- | --- | --- | --- | --- | --- | --- | --- | --- | --- | --- | --- | --- | --- | --- |
| > 30 | > 30 | > 30 | > 30 | > 30 | > 30 | > 30 | > 30 µM | > 30 | 4.1 | COC(=O)N[C@H](C(=O)N1CCC[C@H]1c1nc(-c2ccc(-c3ccc(-c4c[nH]c([C@@H]5CCCN5C(=O)[C@@H](NC(=O)OC)C(C)C)n4)cc3)cc2)c[nH]1)C(C)C | – | – | – | – | – | – | – |
| – | 0.87 | 0.049 | – | > 30 | > 30 | 0.0045 | 21 µM | > 30 | – | CC(=O)c1ccc2c(c1)N(CCCN1CCN(CCO)CC1)c1ccccc1S2 [ACETOPHENAZINE] | – | – | – | – | – | – | – |
| – | – | – | – | – | – | – | – | – | – | O=C1c2c(O)c(=O)ccn2N([C@@H]2c3ccccc3SCc3c2ccc(F)c3F)[C@@H]2COCCN12 [BALOXAVIR] | > 30 | > 30 | > 30 | > 30 | > 30 | > 30 | > 30 |
| – | – | – | – | – | – | – | – | – | – | C(=N\NC1=NCCN1)/c1c2ccccc2c(/C=N/NC2=NCCN2)c2ccccc12 [BISANTRENE] | > 30 | > 30 | > 30 | 3.88 | 5.96 | > 30 | > 30 |
| > 30 | > 30 | > 30 | – | > 30 | > 30 | > 30 | > 30 µM | > 30 | > 30 | N[C@@H](C(=O)N[C@@H]1C(=O)N2C(C(=O)O)=C(Cl)CS[C@H]12)c1ccccc1 [CEFACLOR ANHYDROUS] | – | – | – | – | – | – | – |
| – | – | – | – | – | – | – | – | – | – | CCC(=O)O[C@H]1[C@H](O[C@@H]2[C@@H](C)[C@H](O[C@H]3C[C@@](C)(OC)[C@@H](O)[C@H](C)O3)[C@@H](C)C(=O)O[C@H](CC)[C@@](C)(O)[C@H](O)[C@@H](C)C(=O)[C@H](C)C[C@@]2(C)O)O[C@H](C)C[C@@H]1N(C)C [ERYTHROMYCIN PROPIONATE] | > 3 | > 30 | > 30 | > 30 | 12.9 | > 30 | > 30 |
| > 10 | 13 | > 30 | 11 | > 30 | > 30 | > 30 | > 30 µM | > 30 | > 30 | COc1ccc2c(c1)C(=O)N(CCc1ccc(S(=O)(=O)NC(=O)NC3CCCCC3)cc1)C(=O)C2(C)C [GLIQUIDONE] | – | – | – | – | – | – | – |
| – | – | – | – | – | – | – | – | – | – | CN1CCCC(CN2c3ccccc3Sc3ccccc32)C1 (stereo unspecified) [MEPAZINE] | > 10 | > 30 | > 30 | > 30 | – | > 30 | > 30 |
| > 30 | > 30 | > 30 | – | > 30 | > 30 | > 30 | > 30 µM | > 30 | > 30 | NC(=O)c1ncn([C@@H]2O[C@H](CO)[C@@H](O)[C@H]2O)c1O [MIZORIBINE] | – | – | – | – | – | – | – |
| – | – | – | – | – | – | – | – | – | – | Cc1cc2c(cc1CC(=O)c1sccc1S(=O)(=O)Nc1onc(C)c1Cl)OCO2 [SITAXENTAN] | > 10 | > 30 | > 30 | > 30 | > 30 | > 30 | > 30 |
| – | – | – | – | – | – | – | – | – | – | Cc1ccc(O)c2ncccc12 [TILIQUINOL] | > 30 | > 30 | > 30 | > 30 | > 30 | > 30 | > 30 |
| – | – | – | – | – | – | – | – | – | – | CC(=O)OC[C@H]1O[C@@H](n2ccc(=O)[nH]c2=O)[C@H](OC(C)=O)[C@@H]1OC(C)=O [URIDINE TRIACETATE] | > 30 | > 30 | > 30 | > 30 | > 30 | > 30 | > 30 |
| > 30 | > 30 | > 30 | > 30 | > 30 | > 30 | > 30 | > 30 µM | > 30 | > 30 | CCCS(=O)(=O)Nc1ccc(F)c(C(=O)c2c[nH]c3ncc(-c4ccc(Cl)cc4)cc23)c1F [VEMURAFENIB] | – | – | – | – | – | – | – |
| > 30 | > 30 | > 30 | > 30 | > 30 | > 30 | > 30 | > 30 µM | > 30 | > 30 | O=C(CCCCCCC(=O)Nc1ccccc1)NO [VORINOSTAT] | – | – | – | – | – | – | – |

| SMILES | AC50 [1] [µM] | AC50 [2] [µM] | AC50 [3] [µM] | AC50 [4] [µM] | AC50 [5] [µM] | AC50 [6] [µM] | AC50 [7] [µM] | AC50 [8] | AC50 [9] [µM] | AC50 [10] [µM] | AC50 [11] [µM] | AC50 [12] [µM] | AC50 [13] [µM] | AC50 [14] [µM] | AC50 [15] [µM] | AC50 [16] [µM] | AC50 [17] [µM] |
| --- | --- | --- | --- | --- | --- | --- | --- | --- | --- | --- | --- | --- | --- | --- | --- | --- | --- |
| CO/N=C(\C(=O)N[C@@H]1C(=O)N2C(C(=O)[O-])=C(C[N+]3(C)CCCC3)CS[C@H]12)c1csc(N)n1 | > 30 | > 30 | > 300 | > 30 | > 300 | > 300 | > 300 | > 30 µM and 97 µM | > 300 | > 30 | – | – | – | – | – | – | – |
| CC(=O)OCC(=O)[C@@]1(O)CC[C@H]2[C@@H]3CCC4=CC(=O)CC[C@]4(C)[C@H]3C(=O)C[C@@]21C [CORTISONE ACETATE] | – | – | – | – | > 30 | – | > 30 | – | – | > 30 | – | > 30 | – | – | – | – | > 30 |
| COC(=O)[C@@H]1CC2=CC(=O)CC[C@]2(C)[C@@]23O[C@@H]2C[C@@]2(C)[C@@H](CC[C@@]24CCC(=O)O4)[C@H]13 [EPLERENONE] | > 30 | > 30 | > 30 | > 30 | > 30 | > 30 | > 30 | > 30 µM | > 30 | > 10 | – | – | – | – | – | – | – |
| CC(C)Cc1ccc(CC(=O)O)cc1 [IBUFENAC] | – | > 30 | > 30 | – | > 30 | > 30 | > 30 | > 30 µM | > 30 | – | – | – | – | – | – | – | – |
| CCc1ccc(CCOc2ccc(CC3SC(=O)NC3=O)cc2)nc1 (stereo unspecified) [PIOGLITAZONE] | > 30 | – | – | > 30 | – | > 30 | – | – | – | > 10 | 9.68 | > 30 | > 30 | > 30 | > 30 | > 30 | > 30 |
